From patent US20240189242A1, “LIPID NANOPARTICLE COMPOSITIONS AND METHODS OF FORMULATING THE SAME” (MODERNATX, INC., priority 2021, published 2024)

Columns and labels:
Format in all cases: physicochemical
RNA [1] = test: percentage of IG in binary mixtures of RNA and ionizable lipid, ion pair reversed phase HPLC; conditions: for initial rate of IG formation: Compound III binaries with 5 mM agent (FIG. 15); for levels of IG: binary mixtures of RNA and Compound III with 1 mM agent, versus control
Excerpt: To detect and quantify the amount of IG present in LNP formulations comprising polynucleotides and lipid, a protocol was developed (FIG. 2) that included (1) extraction of the polynucleotide molecules (e.g. precipitation, liquid:liquid extraction); (2) assessment of integrity (e.g. purity, length) of the isolated polynucleotides by known methods (e.g. fragment analyzer, gel electrophoresis); and (3) analysis of the isolated polynucleotides by HPLC.
(§1) RNA was extracted from the LNP formulation by precipitation in ammonium acetate in isopropanol; resuspended in water to target a final RNA concentration of 0.1 mg/mL; and assessed by fragment analyzer capillary electrophoresis and ion pair reversed phase HPLC (performed on a Thermo DNApac RP 100×2.1 mm column at 65° C., with mobile phases containing 50 mM dibutylammonium acetate and 100 mM triethylammonium acetate in water and acetonitrile). Elution with an acetonitrile gradient provided an RNA separation primarily driven by mRNA length and sensitive to any added hydrophobic elements. Two prominent peaks were apparent on the HPLC chromatogram (FIG. 2), including a “main peak” comprising non-adduct mRNA and an “IG” peak comprising mRNA with one or more covalent modifications. The mass fraction of RNA containing at least one lipid adduct was determined by integrating the area under the curve (AUC) of all RNA peaks (including products shorter than the full-length product, the full-length product, and the hydrophobic modified RNA) and taking the late-eluting region as an area percent of the total peak area.
Compound III was dissolved in ethanol at a concentration of 4 mg/mL, and the RNA diluted in sodium acetate buffer pH 5.5; the RNA and lipids were then mixed in 25% ethanol. Samples were held at 25° C., and the RNA was periodically extracted by precipitation in isopropanol and analyzed by ion pair reversed phase (FIGS. 5 and 6A, data marked by *).

RNA [2] = test: percentage of IG in LNPs buffered with PBS or Tris, HPLC
Experimental: as §1
To determine if different buffering conditions confer reductions in the percentage of IG formed in binary mixtures of RNA and Compound III, binary mixtures were prepared with RNA and Compound III and buffered with PBS or Tris at and the percentage of IG in the resulting binary mixtures was quantified according to the protocol detailed in Example 1. In brief, a single batch of LNPs was split mid-process into four aliquots, two of which were prepared in a final buffer of 1×PBS and the other two of which were prepared in a final buffer of 100 mM Tris-HCl pH 7.4. […]
To determine if different buffering conditions confer reductions in the percentage of IG formed in binary mixtures of RNA and Compound VI, binary mixtures were prepared with RNA and Compound VI and buffered PBS or Tris at and the percentage of IG in the resulting binary mixtures was quantified according to the protocol detailed in Example 1.

RNA [3] = test: percentage of IG in binary mixtures of RNA and ionizable lipid, ion pair reversed phase HPLC

Compound: O=S([O-])S(=O)(=O)[O-].[K+].[K+] [potassium metabisulfite]
- initial rate of IG formation (RNA [1]): effective at eliminating the fast initial rate of IG formation
- levels of IG (RNA [1]; 25° C., after 18 hours): reduced levels of IG

Compound: O=C(O)CCP(CCC(=O)O)CCC(=O)O [TCEP, tris(2-carboxyethyl)phosphine]
- levels of IG (RNA [1]; 25° C., after 18 hours): reduced levels of IG

Compound: N[C@@H](CCS)C(=O)O [homo cysteine, homocysteine]
- levels of IG (RNA [1]; 25° C., after 18 hours): reduced levels of IG

Compound: CCCCCCCCCN(CCCCCCCCC)CCN(CCCCCCCCC)CC(=O)N1CCN(C(=O)CN(CCCCCCCCC)CCCCCCCCC)CC1 [Compound VI]
- percentage of IG, Tris versus PBS (RNA [2]; Compound VI LNPs stored at 5° C., 20 mM Tris, 8% sucrose, pH 8 versus 1×PBS, pH 7.2): lower in binary mixtures buffered with Tris compared to binary mixtures buffered with PBS
- IG (RNA [3]; control binary mixtures of RNA and Compound VI, after 1 day): ~55%
- IG (RNA [3]; control binary mixtures of RNA and Compound VI, after 2 days): ~70%
- IG (RNA [3]; control binary mixtures of RNA and Compound VI, after 13 days): ~80%

Compound: O=C(O)CCCC[C@@H]1CCSS1 (racemic) [lipoic acid]
- levels of IG (RNA [1]; 25° C., after 18 hours): reduced levels of IG

Compound: CCCCCCCCCCCOC(=O)CCCCCN(CCO)CCCCCCCC(=O)OC(CCCCCCCC)CCCCCCCC [Compound III]
- percentage of IG over time (RNA [2]; Compound III LNPs buffered with Tris and stored either at 5° C. or 20° C.): around 10%
- percentage of IG, Tris versus PBS (RNA [2]; Compound III LNPs, 100 mM Tris-HCl pH 7.4 (5° C., −20° C.) versus 1×PBS (5° C.)): lower in binary mixtures buffered with Tris compared to binary mixtures buffered with PBS
- IG formation over time (RNA [1]; chromatographically purified Compound III (up to 99% purity, no detectable Compound III-N-oxide) and RNA): still formed IG over time
- IG (RNA [1]; control binary mixtures of RNA and Compound III (Example 6), 25° C., after 3 days): ~35%
- IG detected (RNA [1]; control binary mixtures of RNA and Compound III (Example 11), 25° C., after 18 hours): ~20%
- percentage of IG over time (RNA [3]; binary mixtures with RNA): increased over time
- IG (RNA [3]; control binary mixtures of RNA and Compound III (Example 5), after 0 days): ~10%
- IG (RNA [3]; control binary mixtures of RNA and Compound III (Example 5), after 5 days): ~40%
- IG (RNA [3]; control binary mixtures of RNA and Compound III (Example 5), after 25 days): ~45%
- IG (RNA [3]; control binary mixtures of RNA and Compound III (Example 6), 25° C., after 1 day): ~15%
- IG (RNA [3]; control binary mixtures of RNA and Compound III (Example 6), 25° C., after 7 days): ~40%
- IG detected (RNA [3]; control binary mixtures of RNA and Compound III (Example 7), 25° C., after 18 hours): ~35%
- IG detected (RNA [3]; control binary mixtures of RNA and Compound III, after 13 days of incubation at 25° C.): ~45%
- percentage IG detected (RNA [3]; mRNA and Compound III treated with higher concentrations of sodium metabisulfite (KDS), removed by dialysis with 20 mM Tris, t=0 h and 24 hours): reduced when treated with higher concentrations

Compound: O=S([O-])S(=O)(=O)[O-].[Na+].[Na+] [sodium metabisulfite]
- initial rate of IG formation (RNA [1]): effective at eliminating the fast initial rate of IG formation

Compound: N[C@@H](CCC(=O)N[C@@H](CS)C(=O)NCC(=O)O)C(=O)O [glutathione]
- levels of IG (RNA [1]; 25° C., after 18 hours): reduced levels of IG

Compound: Clc1ccc(C(c2ccc(Cl)cc2)C(Cl)(Cl)Cl)cc1 [DDT, dichlorodiphenyltrichloroethane]
- levels of IG (RNA [1]; 25° C., after 18 hours): reduced levels of IG

Compound: O[C@H](CS)[C@H](O)CS [DTT, dithiothreitol]
- levels of IG (RNA [1]; 25° C., after 18 hours): reduced levels of IG

Compound: O[C@H](CS)[C@@H](O)CS [DTE, dithioerythritol]
- levels of IG (RNA [1]; 25° C., after 18 hours): reduced levels of IG

Compound: O=S([O-])([O-])=S.[Na+].[Na+] [sodium thiosulfate]
- levels of IG (RNA [1]; 25° C., after 18 hours): reduced levels of IG

Compound: [BH4-].[Na+] [sodium borohydrate]
- levels of IG (RNA [1]; 25° C., after 18 hours): reduced levels of IG

Compound: NCCSSCCN [cystamine]
- levels of IG (RNA [1]; 25° C., after 18 hours): reduced levels of IG

Compound: O=C([O-])CS.[Na+] [sodium thioglycolate]
- levels of IG (RNA [1]; 25° C., after 18 hours): reduced levels of IG

Compound: CC(=O)N[C@@H](CS)C(=O)O [N-acetyl cysteine]
- initial rate of IG formation (RNA [1]): effective at eliminating the fast initial rate of IG formation
- levels of IG (RNA [1]; 25° C., after 18 hours): reduced levels of IG
